Reference: ChEMBL document CHEMBL3286198, “Targeting integrins αvβ3 and α5β1 with new β-lactam derivatives” (Eur J Med Chem, 2014)
Calls of active or inactive are those of the source. No cut-off for these calls is given here.

Assays:
Assay type in all cases: cell-based
[1] = molecular target: T1, Integrin alpha-5/beta-1 (Homo sapiens, UniProt P05556+P08648); assay: Agonist activity at alpha5beta1 integrin in human K562 cells assessed as increase of fibronectin-mediated cell adhesion after 30 mins by fluorescence assay
[2] = molecular target: T2, Integrin alpha-V/beta-3 (Homo sapiens, UniProt P05106+P06756); assay: Agonist activity at alphavbeta3 integrin in human SK-MEL-24 cells assessed as increase of fibronectin-mediated cell adhesion after 30 mins by fluorescence assay
[3] = tested on: K562; assay: Selectivity ratio of EC50 for alphavbeta3 integrin in human SK-MEL-24 cells to EC50 for alpha5beta1 integrin in human K562 cells
[4] = molecular target: T1, Integrin alpha-5/beta-1; assay: Agonist activity at alpha5beta1 integrin in human K562 cells assessed as increase of fibronectin-mediated cell adhesion at 10 ug/ml after 30 mins by fluorescence assay in presence of neutralizing antibody of beta1
[5] = molecular target: T2, Integrin alpha-V/beta-3; assay: Agonist activity at alphavbeta3 integrin in human SK-MEL-24 cells assessed as increase of fibronectin-mediated cell adhesion at 10 ug/ml after 30 mins by fluorescence assay in presence of neutralizing antibodies of alphav
[6] = molecular target: Integrin alpha-IIb/beta-3 (Homo sapiens) (UniProt P05106+P08514); assay: Agonist activity at alpha2bbeta3 integrin in PMA-stimulated human K562 cells assessed as increase of cell adhesion after 30 mins by flow cytometry in presence of tirofiban
[7] = molecular target: Integrin alpha-4/beta-1 (Homo sapiens, UniProt P05556+P13612); assay: Antagonist activity at alpha4beta1 integrin in human Jurkat E6.1 cells assessed as inhibition of VCAM1-mediated cell adhesion after 30 mins by fluorescence assay
[8] = molecular target: Integrin alpha-L/beta-2 (LFA-1) (Homo sapiens, UniProt P05107+P20701); assay: Antagonist activity at alphaLbeta2 integrin in human Jurkat E6.1 cells assessed as inhibition of ICAM1-mediated cell adhesion after 30 mins by fluorescence assay
[9] = molecular target: T1, Integrin alpha-5/beta-1; assay: Agonist activity at alpha5beta1 integrin in human K562 cells assessed as increase of cell adhesion after 30 mins by fluorescence assay
[10] = molecular target: T2, Integrin alpha-V/beta-3; assay: Agonist activity at alphavbeta3 integrin in human SK-MEL-24 cells assessed as increase of cell adhesion after 30 mins by fluorescence assay

Integrin alpha-L/beta-2 (LFA-1), sequence (P20701 whole entry): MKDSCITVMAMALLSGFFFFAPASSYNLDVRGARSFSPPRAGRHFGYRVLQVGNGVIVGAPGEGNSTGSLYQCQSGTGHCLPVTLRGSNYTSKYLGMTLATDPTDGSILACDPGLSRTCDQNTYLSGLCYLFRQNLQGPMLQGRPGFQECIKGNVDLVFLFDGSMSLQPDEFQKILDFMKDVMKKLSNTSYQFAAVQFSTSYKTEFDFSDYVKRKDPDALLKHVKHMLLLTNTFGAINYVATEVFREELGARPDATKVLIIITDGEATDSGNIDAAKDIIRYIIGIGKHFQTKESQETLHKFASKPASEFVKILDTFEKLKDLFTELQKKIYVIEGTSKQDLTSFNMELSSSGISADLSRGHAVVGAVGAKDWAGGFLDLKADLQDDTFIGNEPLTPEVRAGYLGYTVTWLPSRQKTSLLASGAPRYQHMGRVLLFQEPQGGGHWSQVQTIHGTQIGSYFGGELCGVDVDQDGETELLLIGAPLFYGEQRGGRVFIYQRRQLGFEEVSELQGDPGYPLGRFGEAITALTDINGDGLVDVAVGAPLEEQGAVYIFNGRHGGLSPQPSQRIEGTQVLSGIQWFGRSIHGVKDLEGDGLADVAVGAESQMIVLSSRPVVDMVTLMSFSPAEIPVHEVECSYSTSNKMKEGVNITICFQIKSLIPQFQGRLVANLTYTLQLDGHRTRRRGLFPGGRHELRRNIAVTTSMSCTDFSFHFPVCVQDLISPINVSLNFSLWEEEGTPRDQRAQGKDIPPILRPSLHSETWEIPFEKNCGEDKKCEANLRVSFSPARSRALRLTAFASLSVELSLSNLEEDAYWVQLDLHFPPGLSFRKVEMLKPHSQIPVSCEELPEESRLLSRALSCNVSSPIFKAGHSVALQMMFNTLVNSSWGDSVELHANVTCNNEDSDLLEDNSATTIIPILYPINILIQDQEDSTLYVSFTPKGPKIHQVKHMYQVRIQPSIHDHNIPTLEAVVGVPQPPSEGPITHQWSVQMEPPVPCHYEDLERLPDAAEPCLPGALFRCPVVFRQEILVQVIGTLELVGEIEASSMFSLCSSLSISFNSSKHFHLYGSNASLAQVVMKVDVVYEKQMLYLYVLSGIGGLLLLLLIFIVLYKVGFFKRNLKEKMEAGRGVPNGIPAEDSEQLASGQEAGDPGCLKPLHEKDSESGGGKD
Integrin alpha-L/beta-2 (LFA-1), sequence (P05107 whole entry): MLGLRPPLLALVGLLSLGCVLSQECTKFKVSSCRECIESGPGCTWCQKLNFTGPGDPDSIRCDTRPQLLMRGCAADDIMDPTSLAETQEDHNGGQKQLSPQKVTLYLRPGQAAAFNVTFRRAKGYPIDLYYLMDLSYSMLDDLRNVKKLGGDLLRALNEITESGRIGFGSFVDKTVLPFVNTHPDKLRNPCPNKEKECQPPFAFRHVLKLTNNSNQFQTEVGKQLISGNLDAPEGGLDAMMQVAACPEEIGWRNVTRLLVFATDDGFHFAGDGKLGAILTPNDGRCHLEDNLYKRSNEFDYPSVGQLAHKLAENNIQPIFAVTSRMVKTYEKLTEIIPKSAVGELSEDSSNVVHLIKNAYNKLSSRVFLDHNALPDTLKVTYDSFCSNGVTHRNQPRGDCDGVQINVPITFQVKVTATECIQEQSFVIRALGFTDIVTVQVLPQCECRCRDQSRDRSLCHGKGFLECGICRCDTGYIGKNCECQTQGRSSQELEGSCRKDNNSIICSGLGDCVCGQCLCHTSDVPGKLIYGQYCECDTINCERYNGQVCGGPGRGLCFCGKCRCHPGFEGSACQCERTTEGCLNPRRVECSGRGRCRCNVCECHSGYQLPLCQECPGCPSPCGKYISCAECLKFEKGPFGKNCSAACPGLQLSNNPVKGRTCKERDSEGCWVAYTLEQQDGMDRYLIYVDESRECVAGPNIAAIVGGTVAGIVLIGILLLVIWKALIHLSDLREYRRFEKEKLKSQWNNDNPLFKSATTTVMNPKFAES
Integrin alpha-4/beta-1, sequence (P05556 whole entry): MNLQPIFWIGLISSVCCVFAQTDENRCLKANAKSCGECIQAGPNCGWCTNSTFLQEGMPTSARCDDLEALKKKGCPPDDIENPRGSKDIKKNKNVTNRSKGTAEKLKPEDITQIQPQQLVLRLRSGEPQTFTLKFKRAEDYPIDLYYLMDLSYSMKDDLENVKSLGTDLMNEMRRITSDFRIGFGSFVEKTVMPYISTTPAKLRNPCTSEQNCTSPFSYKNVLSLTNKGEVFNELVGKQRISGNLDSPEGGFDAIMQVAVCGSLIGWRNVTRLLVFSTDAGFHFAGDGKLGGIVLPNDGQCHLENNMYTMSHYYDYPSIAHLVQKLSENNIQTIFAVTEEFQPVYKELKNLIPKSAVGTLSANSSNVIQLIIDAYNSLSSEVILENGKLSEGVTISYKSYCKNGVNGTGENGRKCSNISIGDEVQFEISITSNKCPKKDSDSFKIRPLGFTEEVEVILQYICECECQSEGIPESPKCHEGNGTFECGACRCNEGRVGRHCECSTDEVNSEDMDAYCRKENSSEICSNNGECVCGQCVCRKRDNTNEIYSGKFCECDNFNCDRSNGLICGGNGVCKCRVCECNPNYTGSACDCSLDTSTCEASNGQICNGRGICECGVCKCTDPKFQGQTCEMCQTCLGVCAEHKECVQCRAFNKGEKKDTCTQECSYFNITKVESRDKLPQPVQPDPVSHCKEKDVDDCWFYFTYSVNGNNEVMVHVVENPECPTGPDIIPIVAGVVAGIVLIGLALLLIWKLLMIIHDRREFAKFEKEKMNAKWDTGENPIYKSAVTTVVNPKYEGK
Integrin alpha-4/beta-1, sequence (P13612 whole entry): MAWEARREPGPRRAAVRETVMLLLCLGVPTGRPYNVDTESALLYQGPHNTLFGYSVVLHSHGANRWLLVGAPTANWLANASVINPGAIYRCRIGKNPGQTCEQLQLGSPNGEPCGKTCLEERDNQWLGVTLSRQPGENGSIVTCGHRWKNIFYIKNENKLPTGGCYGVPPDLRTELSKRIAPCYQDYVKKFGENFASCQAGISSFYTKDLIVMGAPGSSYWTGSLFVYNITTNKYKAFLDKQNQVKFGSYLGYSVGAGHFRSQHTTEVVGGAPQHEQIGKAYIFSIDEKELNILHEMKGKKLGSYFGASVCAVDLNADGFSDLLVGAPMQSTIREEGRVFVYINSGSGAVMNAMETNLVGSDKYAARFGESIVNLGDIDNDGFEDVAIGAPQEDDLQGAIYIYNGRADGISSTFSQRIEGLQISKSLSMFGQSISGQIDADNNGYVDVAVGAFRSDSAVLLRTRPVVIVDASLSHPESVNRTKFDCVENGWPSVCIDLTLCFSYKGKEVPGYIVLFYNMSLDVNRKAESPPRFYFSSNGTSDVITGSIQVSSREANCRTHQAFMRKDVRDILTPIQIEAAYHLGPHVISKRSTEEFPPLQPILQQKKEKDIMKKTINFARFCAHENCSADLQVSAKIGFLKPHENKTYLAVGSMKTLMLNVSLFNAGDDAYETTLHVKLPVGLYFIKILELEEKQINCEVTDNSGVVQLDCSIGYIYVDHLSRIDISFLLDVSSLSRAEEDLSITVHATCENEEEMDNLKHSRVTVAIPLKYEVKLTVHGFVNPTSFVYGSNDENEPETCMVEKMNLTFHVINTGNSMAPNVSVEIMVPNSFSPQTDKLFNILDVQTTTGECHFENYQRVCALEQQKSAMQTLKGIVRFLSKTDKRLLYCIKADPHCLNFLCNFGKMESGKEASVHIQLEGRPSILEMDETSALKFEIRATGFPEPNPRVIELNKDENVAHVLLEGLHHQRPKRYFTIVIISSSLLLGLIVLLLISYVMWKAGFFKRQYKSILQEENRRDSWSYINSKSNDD

Activity [1] | EC50 [1] | Activity [2] | EC50 [2] | Activity [4] | Activity [5] | Activity [6] | IC50 [7] | IC50 [8] | Activity [9] | Activity [10] | Structure (SMILES) | Ratio EC50 [3]
Dose-dependent effect | 0.365 µM | Dose-dependent effect | 10.4 µM |  |  |  |  |  |  |  | NCc1ccc(NC(=O)N2C(=O)C[C@H]2C(=O)O)cc1 | 1000
Dose-dependent effect | 0.763 µM | Dose-dependent effect | 0.011 µM | inactive | inactive | Active | ≥ 100 µM | ≥ 100 µM | Active | Active | NCc1ccc(NC(=O)N2C(=O)CC2CC(=O)NCC(=O)O)cc1 (stereo not drawn) | 
Dose-dependent effect | 0.012 µM | Dose-dependent effect | 0.055 µM | inactive | inactive | Active | ≥ 100 µM | ≥ 100 µM | Active | Active | NCc1ccc(NC(=O)N2C(=O)CC2CC(=O)O)cc1 (stereo not drawn) | 5
